Measured values as given in US6380178B1, “Cyclic regimens using cyclocarbamate and cyclic amide derivatives” (American Home Products Corporation, priority 1999, dated 2002).

Row | SMILES | melting point [°C]
1 | CC1(C)OC(=O)Nc2sc(-c3cccc(Cl)c3)cc21 [Example 1, 6-(3-chlorophenyl)-1,4-dihydro-4,4-dimethyl-2H-thieno[2,3-d][1,3]oxazine-2-one] | 149 to 150
2 | CC1(C)OC(=O)Nc2cc(-c3cccc(Cl)c3)sc21 [Example 2, 6-(3-chlorophenyl)-1,4-dihydro-4,4-dimethyl-2H-thieno[3,2-d][1,3]oxazine-2-one] | 123 to 125
